Results reported in patent publication US9828369B2, “Isoquinoline derivatives useful as inhibitors of diacylglyceride O-acyltransferase 2” (Merck Sharp & Dohme Corp., priority 2014, dated 2017).

Each compound was assayed against hDGAT2 (Homo sapiens (Human), UniProt Q96PD7) (assay: DGAT2 enzymatic activity assay (triolein formation, LC/MS/MS)). Conditions: not given.
hDGAT2, sequence (Q96PD7 whole entry): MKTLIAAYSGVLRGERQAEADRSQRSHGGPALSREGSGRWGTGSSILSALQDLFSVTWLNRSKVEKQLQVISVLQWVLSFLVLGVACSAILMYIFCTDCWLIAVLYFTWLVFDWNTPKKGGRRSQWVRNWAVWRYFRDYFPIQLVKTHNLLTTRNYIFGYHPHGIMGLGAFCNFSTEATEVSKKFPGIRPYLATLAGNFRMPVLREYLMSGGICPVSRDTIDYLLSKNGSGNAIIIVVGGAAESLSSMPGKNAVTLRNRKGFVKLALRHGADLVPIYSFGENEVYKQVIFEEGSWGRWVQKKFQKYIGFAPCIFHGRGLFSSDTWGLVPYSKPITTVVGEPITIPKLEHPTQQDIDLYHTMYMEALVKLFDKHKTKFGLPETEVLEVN

Row | IC50 [nM] | SMILES
1 | 3550 | COc1cccc(-c2ccc(CNC(=O)[C@@H]3COC(c4ccccc4)=N3)c3cnccc23)c1 (racemic) [Example 42, (R/S)-N-((5-(3-methoxyphenyl)isoquinolin-8-yl)methyl)-2-phenyl-4,5-dihydrooxazole-4-carboxamide]
2 | 373 | CC[C@H](C(=O)NCc1ccc(-c2cccc(OC)c2)c2ccncc12)c1ccc(C(F)(F)F)c(F)c1 (racemic) [Example 126, (R/S)-2-(3-fluoro-4-(trifluoromethyl)phenyl)-N-((5-(3-methoxyphenyl)isoquinolin-8-yl)methyl)butanamide]
3 | 118 | COc1cccc(-c2ccc(CNC(=O)[C@H](C)c3ccc4cc(OC)ccc4c3)c3cnccc23)c1 (racemic) [Example 142, (R/S)-2-(6-methoxynaphthalen-2-yl)-N-((5-(3-methoxyphenyl)isoquinolin-8-yl)methyl)propanamide]
4 | 923 | COc1cccc(-c2ccc(CNC(=O)[C@H](C)c3ccc(CC(C)C)cc3)c3cnccc23)c1 (racemic) [Example 146, (R/S)-2-(4-isobutylphenyl)-N-((5-(3-methoxyphenyl)isoquinolin-8-yl)methyl)propanamide]
5 | 163 | COC(=O)c1cccc(-c2ccc(CNC(=O)c3nccc4ccccc34)c3cnccc23)c1 [Example 11, 8-((isoquinoline-1-carboxamido)methyl)-5-(3-(methoxycarbonyl)phenyl) isoquinolin-2-ium]

Same assay, conditions: read-out: IC50 values for inhibition of DGAT2; membrane prep of Sf-9 cells expressing hDGAT2; 25 μM diolein, 10 μM oleoyl-CoA; room temperature; triolein by LC/MS/MS

Row | IC50 [nM] | SMILES
6 | 3470 | N#Cc1cccc(-c2ccc(CNC(=O)[C@@H]3C[C@H]3c3ccccc3)c3cnccc23)c1 (relative stereo) [Example 16, (trans)-N-((5-(3-cyanophenyl)isoquinolin-8-yl)methyl)-2-phenylcyclopropanecarboxamide]
7 | 589 | COc1ccc([C@@H]2C[C@@H]2C(=O)NCc2ccc(-c3cccc(OC)c3)c3ccncc23)cc1 (relative stereo) [Example 24, (cis)-2-(4-methoxyphenyl)-N-((5-(3-methoxyphenyl)isoquinolin-8-yl)methyl)cyclopropanecarboxamide]
8 | 589 | COc1cccc(-c2ccc(CNC(=O)[C@H]3C[C@@H]3c3nc(C)no3)c3cnccc23)c1 (relative stereo) [Example 108, (trans)-N-((5-(3-methoxyphenyl)isoquinolin-8-yl)methyl)-2-(3-methyl-1,2,4-oxadiazol-5-yl) cyclopropanecarboxamide]
9 | 2560 | COc1cccc(-c2ccc(CNC(=O)[C@@H]3C[C@@H]3c3ccc(C(F)(F)F)cc3)c3cnccc23)c1 (relative stereo) [Example 144, (cis)-N-((5-(3-methoxyphenyl)isoquinolin-8-yl)methyl)-2-(4-(trifluoromethyl)phenyl) cyclopropanecarboxamide]
10 | 85.6 | COC(=O)c1cccc(-c2ccc(CNC(=O)Cc3ccc(C(F)(F)F)cc3)c3cnccc23)c1 [Example 2, methyl 3-(8-((2-(4-(trifluoromethyl)phenyl)acetamido)methyl)isoquinolin-5-yl)benzoate]
11 | 82.7 | COC(=O)c1cccc(-c2ccc(CNC(=O)[C@@H]3C[C@H]3c3ccccc3)c3cnccc23)c1 [Example 3, methyl 3-(8-(((1R,2R)-2-phenylcyclopropanecarboxamido)methyl)isoquinolin-5-yl)benzoate]
12 | 96.5 | COC(=O)c1cccc(-c2ccc(CNC(=O)C3CC3c3nc(C)no3)c3cnccc23)c1 (stereo not shown) [Example 4, methyl 3-(8-((2-(3-methyl-1,2,4-oxadiazol-5-yl)cyclopropane-carboxamido)methyl)isoquinolin-5-yl)benzoate]
13 | 100 | COC(=O)c1cccc(-c2ccc(CNC(=O)C3CCN(c4ccc(C(F)(F)F)cc4)CC3)c3cnccc23)c1 [Example 5, methyl 3-(8-((1-(4-(trifluoromethyl)phenyl)piperidine-4-carboxamido)methyl)isoquinolin-5-yl)benzoate]
14 | 101 | COC(=O)c1cccc(-c2ccc(CNC(=O)Cc3ccc(Oc4ccccc4)cc3)c3cnccc23)c1 [Example 6, methyl 3-(8-((2-(4-phenoxyphenyl)acetamido)methyl)isoquinolin-5-yl)benzoate]
15 | 111 | COC(=O)c1cccc(-c2ccc(CNC(=O)c3cc(C(C)(C)C)nn3C)c3cnccc23)c1 [Example 7, methyl 3-(8-((3-(tert-butyl)-1-methyl-1H-pyrazole-5-carboxamido)methyl)isoquinolin-5-yl)benzoate]
16 | 123 | COC(=O)c1cccc(-c2ccc(CNC(=O)c3cnn(-c4ccccc4)c3C(F)(F)F)c3cnccc23)c1 [Example 8, methyl 3-(8-((1-phenyl-5-(trifluoromethyl)-1H-pyrazole-4-carboxamido)methyl)isoquinolin-5-yl)benzoate]
17 | 132 | CCCc1cc(C(=O)NCc2ccc(-c3cccc(C(=O)OC)c3)c3ccncc23)n(C)n1 [Example 9, methyl 3-(8-((1-methyl-3-propyl-1H-pyrazole-5-carboxamido)methyl)isoquinolin-5-yl)benzoate]
18 | 162 | COC(=O)c1cccc(-c2ccc(CNC(=O)C3CC34CCCC4)c3cnccc23)c1 (stereo not shown) [Example 10, methyl 3-(8-((spiro[2.4]heptane-1-carboxamido)methyl)isoquinolin-5-yl)benzoate]
19 | 196 | COC(=O)c1cccc(-c2ccc(CNC(=O)c3cccc4cnccc34)c3cnccc23)c1 [Example 12, 8-((isoquinoline-5-carboxamido)methyl)-5-(3-(methoxycarbonyl)phenyl) isoquinolin-2-ium]
20 | 1230 | COC(=O)c1cccc(-c2ccc(CNC(=O)c3ccnn3C)c3cnccc23)c1 [Example 13, methyl 3-(8-((1-methyl-1H-pyrazole-5-carboxamido)methyl)isoquinolin-5-yl)benzoate]
21 | 71 | CCOC(=O)c1cccc(-c2ccc(CNC(=O)C3CC3c3ccccc3)c3cnccc23)c1 (stereo not shown) [Example 14, ethyl 3-(8-((2-phenylcyclopropanecarboxamido)methyl)isoquinolin-5-yl)benzoate]

Row | IC50 [nM] | SMILES
22 | 115 | CCOc1cccc(-c2ccc(CNC(=O)C3CC3c3ccccc3)c3cnccc23)c1 (stereo not shown) [Example 15, N-((5-(3-ethoxyphenyl)isoquinolin-8-yl)methyl)-2-phenylcyclopropanecarboxamide]
23 | 3760 | O=C(NCc1ccc(-c2cccc(OC(F)(F)F)c2)c2ccncc12)C1CC1c1ccccc1 (stereo not shown) [Example 17, 2-phenyl-N-((5-(3-(trifluoromethoxy)phenyl)isoquinolin-8-yl)methyl)cyclopropanecarboxamide]
24 | 278 | COCc1cccc(-c2ccc(CNC(=O)C3CC3c3ccccc3)c3cnccc23)c1 (stereo not shown) [Example 18, N-((5-(3-(methoxymethyl)phenyl)isoquinolin-8-yl)methyl)-2-phenylcyclopropanecarboxamide]
25 | 888 | CC(C)Oc1cccc(-c2ccc(CNC(=O)C3CC3c3ccccc3)c3cnccc23)c1 (stereo not shown) [Example 19, N-((5-(3-isopropoxyphenyl)isoquinolin-8-yl)methyl)-2-phenylcyclopropanecarboxamide]
26 | 1860 | CC(C)OC(=O)c1cccc(-c2ccc(CNC(=O)C3CC3c3ccccc3)c3cnccc23)c1 (stereo not shown) [Example 20, isopropyl 3-(8-((2-phenylcyclopropanecarboxamido)methyl)isoquinolin-5-yl)benzoate]
27 | 6270 | NC(=O)c1cccc(-c2ccc(CNC(=O)C3CC3c3ccccc3)c3cnccc23)c1 (stereo not shown) [Example 22, 3-(8-((2-phenylcyclopropanecarboxamido)methyl)isoquinolin-5-yl)benzamide]
28 | 9960 | COc1ccc([C@H]2C[C@@H]2C(=O)NCc2ccc(-c3cccc(OC)c3)c3ccncc23)cc1 [Example 23, (1S,2S)-2-(4-methoxyphenyl)-N-((5-(3-methoxyphenyl)isoquinolin-8-yl)methyl)cyclopropanecarboxamide]
29 | 2050 | COc1cccc(-c2ccc(CNC(=O)c3cc(C4CC4)on3)c3cnccc23)c1 [Example 26, 5-cyclopropyl-N-((5-(3-methoxyphenyl)isoquinolin-8-yl)methyl)isoxazole-3-carboxamide]
30 | 6830 | COc1cccc(-c2ccc(CNC(=O)CC(c3ccccc3)c3ccco3)c3cnccc23)c1 (stereo not shown) [Example 27, 3-(furan-2-yl)-N-((5-(3-methoxyphenyl)isoquinolin-8-yl)methyl)-3-phenylpropanamide]
31 | 3930 | COc1cccc(-c2ccc(CNC(=O)c3cncc(Br)c3)c3cnccc23)c1 [Example 28, 5-bromo-N-((5-(3-methoxyphenyl)isoquinolin-8-yl)methyl)nicotinamide]
32 | 1770 | COc1cccc(-c2ccc(CNC(=O)c3cc(C(F)(F)F)n[nH]3)c3cnccc23)c1 [Example 29, N-((5-(3-methoxyphenyl)isoquinolin-8-yl)methyl)-3-(trifluoromethyl)-1H-pyrazole-5-carboxamide]
33 | 818 | COc1cccc(-c2ccc(CNC(=O)CCc3nc(-c4ccccc4)no3)c3cnccc23)c1 [Example 30, N-((5-(3-methoxyphenyl)isoquinolin-8-yl)methyl)-3-(3-phenyl-1,2,4-oxadiazol-5-yl)propanamide]
34 | 883 | COc1cccc(-c2ccc(CNC(=O)Cc3cccc(Cl)c3Cl)c3cnccc23)c1 [Example 31, 2-(2,3-dichlorophenyl)-N-((5-(3-methoxyphenyl)isoquinolin-8-yl)methyl)acetamide]
35 | 2010 | COc1cccc(-c2ccc(CNC(=O)c3cccc4cccnc34)c3cnccc23)c1 [Example 32, N-((5-(3-methoxyphenyl)isoquinolin-8-yl)methyl)quinoline-8-carboxamide]
36 | 3410 | COc1cccc(-c2ccc(CNC(=O)c3cncc4ccccc34)c3cnccc23)c1 [Example 33, N-((5-(3-methoxyphenyl)isoquinolin-8-yl)methyl)isoquinoline-4-carboxamide]
37 | 7360 | COc1cccc(-c2ccc(CNC(=O)c3cccc(-n4cccn4)c3)c3cnccc23)c1 [Example 34, N-((5-(3-methoxyphenyl)isoquinolin-8-yl)methyl)-3-(1H-pyrazol-1-yl)benzamide]
